Test [1] deals with SH-SY5Y cells. The experiment in a line: Complex I activity in SH-SY5Y cells. It counts as cell-based, human. The conditions noted are these: 250 μM, 6 days. Here is the method:
In order to gain further independent insight into mitochondrial function, the activity of the respiratory chain enzyme, Complex I, was also evaluated. In a second experiment, cells were exposed to decanoic acid (250 μM, dissolved in 0.5% DMSO) for 6 days. The cells were subsequently harvested, and the activity of Complex I was determined. Each experiment was repeated 5 times, and the activity was expressed as nmol/min/mg of cellular protein.

The test system of test [2] is SH-SY5Y cells. The experiment in a line: citrate synthase activity in SH-SY5Y cells (marker of mitochondrial enrichment). It is filed as cell-based, human. Particulars: 6 days; for effect on citrate synthase activity compared to control cells (in words): 50-300 μM. Here is the method: Mitochondrial enrichment was estimated by evaluation of citrate synthase activity (corrected for total cellular protein content). This enzyme is localised at the mitochondria, comprises part of the TCA cycle and is commonly used as a marker of mitochondrial enrichment. A human neuroblastoma cell line (SH-SY5Y) was utilised throughout this study, except where stated. In brief, cells were exposed to a range (50-300 μM, dissolved in 0.5% DMSO) of either octanoic or decanoic acid concentrations. After 6 days, the cells were harvested and citrate synthase activity was determined. Activity was expressed as nmol/min/mg of cellular protein.

In test [3] the test system is SH-SY5Y cells. The test can be described thus: electron microscopy analysis of mitochondrial density and morphology in SH-SY5Y cells. Particulars: 250 μM, p<0.002. It is filed as cell-based, human. As for the experimental part: Additionally, SH-SY5Y cells were prepared for electron microscopy (EM) analysis to assess mitochondrial density and morphology following treatment with decanoic acid.

In test [4] the test system is primary human fibroblasts. The test can be described thus: citrate synthase activity in primary human fibroblasts. It counts as cell-based. The conditions noted are these: 250 μM, 6 days. As for the experimental part:
Finally, the effect of decanoic acid was validated in an independent cell line. Primary cultures of human fibroblasts were exposed to decanoic acid at a concentration of 250 μM for 6 days. Following the incubation, citrate synthase activity was again assessed.

Consider `CCCCCCCCCC(=O)O` [Decanoic Acid, decanoic acid], for which the “Complex I activity with respect to control” value in test [1] (p<0.002) is “significant (p<0.002) increase”. For the same compound, in test [1] (p<0.05), the “Complex I activity normalised against citrate synthase activity” value is given as “significant (p<0.05) increase”. Moreover, in test [2] (250 μM, maximum, p<0.001), the “increase in citrate synthase activity compared to control cells” value is 30%. This compound also had a citrate synthase activity in test [2] (250 μM, n = 8, control 105 ± 5) of 137 ± 5 nmol/min/mg cell protein. The “effect on citrate synthase activity compared to control cells (in words)” value in test [2] is reported as “dose dependent”. In addition, the “number of mitochondria per cell (EM)” value in test [3] is listed as “significant (p<0.002) increase”. Besides, the “increase in citrate synthase activity” value in test [4] came out at 45%.
Turning to `CCCCCCCC(=O)O` [Octanoic acid, octanoic acid, reference compound], the “effect on citrate synthase activity compared to control cells (in words)” value in test [2] is “no effect”.
